What was measured:
enoxaparin (ENOX) = assay: FXa chromogenic assay (absence of plasma), enoxaparin; conditions: enoxaparin 0.1 μg/mL, absence of plasma
fondaparinux (FONDAPX) = assay: FXa chromogenic assay (absence of plasma), fondaparinux; conditions: fondaparinux 0.02 μg/mL, absence of plasma
[1] = test system: unfractionated heparin (UFH); assay: aPTT clotting assay, UFH 0.2 U/mL in plasma (Example 7); type: biochemical; conditions: UFH 0.2 U/mL in plasma
Description: aPTT clotting Assay. Unfractionated heparin was mixed with plasma at a final concentration of 0.2 U/mL. […] The ACL Elite Hemostasis analyzer (Beckman Coulter™) was used to add aPTT reagent (HemosIL SynthASil) to supplemented plasma. Clotting was initiated by addition of CaCl2 and time to clot was recorded.

ENOX (FXa) EC50 (enoxaparin (ENOX)) [µg/mL]	FONDAPX (FXa) EC50 (fondaparinux (FONDAPX))	UFH (aPTT) EC50 [1] [µg/mL]	Structure (SMILES)
0.47	9.23 µg/mL	–	COc1ccc(NC(=O)[C@@H](CCCNC(=N)N)NC(=O)c2cc(NC(=O)[C@H](N)CCCNC(=N)N)ccc2F)cc1C(=O)N[C@H](CCCNC(=N)N)C(=O)Nc1ccc(OC)c(C(=O)N[C@H](CCCNC(=N)N)C(=O)Nc2ccc(F)c(C(N)=O)c2)c1 [Compound 24]
0.17	3.25 µg/mL	–	COc1ccc(NC(=O)[C@@H](CCCNC(=N)N)NC(=O)c2cc(NC(=O)[C@@H](CCCNC(=N)N)NC(=O)c3cc(NC(=O)[C@@H](CCCNC(=N)N)NC(=O)c4cc(NC(=O)[C@@H](C)NC(=O)CCCCNC(=N)N)ccc4OC)ccc3OC)ccc2OC)cc1C(=O)NCCN [Compound 57]
–	–	3.10	COc1ccc(NC(=O)[C@H](CCCCN)NC(=O)c2cc(NC(=O)[C@H](CCCCN)NC(=O)c3cc(OC(=O)[C@@H](N)CCCCN)ccc3OC)ccc2OC)cc1C(=O)N[C@@H](CCCCN)C(=O)Nc1ccc(OCC(=O)O)c(C(N)=O)c1 [Compound 116]
–	–	2.53	COc1ccc(NC(=O)[C@@H](CCCNC(=N)N)NC(=O)c2cc(NC(=O)[C@@H](CCCNC(=N)N)NC(=O)c3cc(NC(=O)[C@@H](CCCNC(=N)N)NC(=O)c4cc(NC(=O)[C@@H](CCCNC(=N)N)NC(=O)CCCCCCCCC(=O)N[C@H](CCCNC(=N)N)C(=O)Nc5ccc(OC)c(C(=O)N[C@H](CCCNC(=N)N)C(=O)Nc6ccc(OC)c(C(=O)N[C@H](CCCNC(=N)N)C(=O)Nc7ccc(OC)c(C(=O)N[C@H](CCCNC(=N)N)C(=O)Nc8ccc(OC)c(C(N)=O)c8)c7)c6)c5)ccc4OC)ccc3OC)ccc2OC)cc1C(N)=O [Compound 66]
0.13	4.53 µg/mL	–	COc1ccc(NC(=O)[C@@H](CCCNC(=N)N)NC(=O)c2cc(NC(=O)[C@@H](CCCNC(=N)N)NC(=O)c3cc(NC(=O)[C@@H](CCCNC(=N)N)NC(=O)c4cc(NC(=O)[C@@H](C)NC(=O)CCN)ccc4OC)ccc3OC)ccc2OC)cc1C(=O)NCCN [Compound 59]
0.78	8.33 µg/mL	–	COc1ccc(NC(=O)C(CCCCN)NC(=O)c2cc(NC(=O)C(CCCCN)NC(=O)c3cc(NC(=O)C(CCCCN)NC(=O)c4cc(NC(=O)C(CCCCN)NC(=N)N)ccc4OC)ccc3OC)ccc2OC)cc1C(N)=O (stereo not shown) [Compound 29]
45.00	inactive	–	COc1ccc(NC(=O)[C@@H](CCCCN)NC(=O)c2c(OC)ccc(NC(=O)[C@@H](CCCCN)NC(=O)c3c(OC)ccc(NC(=O)[C@@H](CCCCN)NC(=O)c4c(OC)ccc(NC(=O)[C@H](N)CCCCN)c4OC)c3OC)c2OC)c(OC)c1C(N)=O [Compound 36]
0.10	3.29 µg/mL	–	COc1ccc(NC(=O)[C@@H](CCCNC(=N)N)NC(=O)c2cc(NC(=O)[C@@H](CCCNC(=N)N)NC(=O)c3cc(NC(=O)[C@@H](CCCNC(=N)N)NC(=O)c4cc(NC(=O)[C@@H](C)NC(=O)CCN)ccc4OC)ccc3OC)ccc2OC)cc1C(=O)NCCCCCN [Compound 63]
30.00	inactive	–	COc1ccc(NC(=O)[C@@H](CCCCN)NC(=O)c2cc(NC(=O)[C@@H](CCCNC(=N)N)NC(=O)c3cc(NC(=O)[C@@H](CCCCN)NC(=O)c4cc(NC(=O)[C@H](N)CCCCN)ccc4OC)ccc3OC)ccc2OC)cc1C(N)=O [Compound 32]
0.07	0.77 µg/mL	–	COc1ccc(NC(=O)[C@@H](CCCNC(=N)N)NC(=O)c2cc(NC(=O)[C@@H](CCCNC(=N)N)NC(=O)c3cc(NC(=O)[C@@H](CCCNC(=N)N)NC(=O)c4cc(NC(=O)[C@H](N)CCCNC(N)=O)ccc4OC)ccc3OC)ccc2OC)cc1C(N)=O [Compound 82]
0.97	10.36 µg/mL	–	COc1ccc(NC(=O)[C@@H](CCCNC(=N)N)NC(=O)c2cc(NC(=O)[C@@H](CCCNC(=N)N)NC(=O)c3cc(NC(=O)[C@@H](CCCNC(=N)N)NC(=O)c4cc(NC(=O)[C@H](N)CCCNC(=N)N)ccc4F)ccc3F)ccc2OC)cc1C(N)=O [Compound 25]
4.30	inactive	–	COc1ccc(NC(=O)[C@@H](CCCNC(N)=O)NC(=O)c2cc(NC(=O)[C@@H](CCCNC(N)=O)NC(=O)c3cc(NC(=O)[C@@H](CCCNC(N)=O)NC(=O)c4cc(NC(=O)[C@H](N)CCCNC(N)=O)ccc4OC)ccc3OC)ccc2OC)cc1C(N)=O [Compound 33]
0.18	4.16 µg/mL	–	COc1ccc(NC(=O)[C@@H](CCCNC(=N)N)NC(=O)c2cc(NC(=O)[C@@H](CCCNC(=N)N)NC(=O)c3cc(NC(=O)[C@@H](CCCNC(=N)N)NC(=O)c4cc(NC(=O)[C@@H](C)N)ccc4OC)ccc3OC)ccc2OC)cc1C(=O)NCCCCCN [Compound 55]
0.36	4.26 µg/mL	–	COc1ccc(NC(=O)[C@@H](CCCCNC(=N)N)NC(=O)c2cc(NC(=O)[C@@H](CCCCNC(=N)N)NC(=O)c3cc(NC(=O)[C@@H](CCCCNC(=N)N)NC(=O)c4cc(NC(=O)[C@H](N)CCCCNC(=N)N)ccc4OC)ccc3OC)ccc2OC)cc1C(N)=O [Compound 12]
3.68	18.01 µg/mL	–	N=C(N)NCCC[C@@H](N)C(=O)Nc1ccc(F)c(C(=O)N[C@H](CCCNC(=N)N)C(=O)Nc2ccc(F)c(C(=O)N[C@H](CCCNC(=N)N)C(=O)Nc3ccc(F)c(C(=O)N[C@H](CCCNC(=N)N)C(=O)Nc4ccc(F)c(C(N)=O)c4)c3)c2)c1 [Compound 23]
0.43	5.24 µg/mL	–	COc1ccc(NC(=O)[C@@H](CCCNC(=N)N)NC(=O)c2cc(NC(=O)[C@@H](CCCNC(=N)N)NC(=O)c3cc(NC(=O)[C@@H](CCCNC(=N)N)NC(=O)c4cc(NC(=O)[C@@H](C)NC(C)=O)ccc4OC)ccc3OC)ccc2OC)cc1C(=O)NCCN [Compound 56]
8.62	11.10 µg/mL	–	N=C(N)NCCC[C@@H](N)C(=O)Nc1cccc(C(=O)N[C@H](CCCNC(=N)N)C(=O)Nc2cccc(C(=O)N[C@H](CCCNC(=N)N)C(=O)Nc3cccc(C(=O)N[C@H](CCCNC(=N)N)C(=O)Nc4cccc(C(N)=O)c4)c3)c2)c1 [Compound 20]
0.92	7.84 µg/mL	–	COc1ccc(NC(=O)[C@@H](CCCNC(=N)N)NC(=O)c2cc(NC(=O)[C@@H](CCCNC(=N)N)NC(=O)c3cc(NC(=O)[C@@H](C)NC(=O)c4cc(NC(=O)[C@H](N)CCCNC(=N)N)ccc4OC)ccc3OC)ccc2OC)cc1C(N)=O [Compound 15]
0.36	3.94 µg/mL	–	COc1ccc(NC(=O)[C@@H](CCCNC(=N)N)NC(=O)c2cc(NC(=O)[C@@H](CCCNC(=N)N)NC(=O)c3cc(NC(=O)[C@@H](CCCNC(=N)N)NC(=O)c4cc(NC(=O)[C@@H](C)NC(=O)CCCCN)ccc4OC)ccc3OC)ccc2OC)cc1C(=O)NCCN [Compound 58]
0.21	2.66 µg/mL	–	COc1ccc(NC(=O)[C@@H](CCCNC(=N)N)NC(=O)c2cc(NC(=O)[C@@H](CCCNC(=N)N)NC(=O)c3cc(NC(=O)[C@@H](CCCNC(=N)N)NC(=O)c4cc(NC(=O)[C@@H](C)NC(C)=O)ccc4OC)ccc3OC)ccc2OC)cc1C(=O)NCCCCCN [Compound 60]
0.36	1.93 µg/mL	–	COc1ccc(NC(=O)[C@@H](CCCNC(=N)N)NC(=O)c2cc(NC(=O)[C@@H](CCCNC(=N)N)NC(=O)c3cc(NC(=O)[C@@H](Cc4c[nH]c5ccccc45)NC(=O)c4cc(NC(=O)[C@H](N)CCCNC(=N)N)ccc4OC)ccc3OC)ccc2OC)cc1C(N)=O [Compound 85]
0.22	5.92 µg/mL	–	COc1ccc(NC(=O)[C@@H](CCCNC(=N)N)NC(=O)c2cc(NC(=O)[C@@H](CCCNC(=N)N)NC(=O)c3cc(NC(=O)[C@@H](CCCNC(=N)N)NC(=O)c4cc(NC(=O)[C@@H](C)N)ccc4OC)ccc3OC)ccc2OC)cc1C(=O)NCCN [Compound 54]
0.11	2.99 µg/mL	–	COc1ccc(NC(=O)[C@@H](CCCNC(=N)N)NC(=O)c2cc(NC(=O)[C@@H](CCCNC(=N)N)NC(=O)c3cc(NC(=O)[C@@H](CCCNC(=N)N)NC(=O)c4cc(NC(=O)[C@@H](C)NC(=O)CCCCNC(=N)N)ccc4OC)ccc3OC)ccc2OC)cc1C(=O)NCCCCCN [Compound 61]
45.00	inactive	–	COc1ccc(NC(=O)[C@@H](CCCCN)NC(=O)c2cc(NC(=O)[C@H](CCCCN)NC(=O)c3cc(NC(=O)[C@@H](CCCCN)NC(=O)c4cc(NC(=O)[C@@H](N)CCCCN)ccc4OC)ccc3OC)ccc2OC)cc1C(N)=O [Compound 37]
0.56	7.63 µg/mL	–	COc1ccc(NC(=O)[C@@H](CCCNC(=N)N)NC(=O)c2cc(NC(=O)[C@@H](CCCNC(=N)N)NC(=O)c3cccc(NC(=O)[C@@H](CCCNC(=N)N)NC(=O)c4cccc(NC(=O)[C@H](N)CCCNC(=N)N)c4)c3)ccc2OC)cc1C(N)=O [Compound 22]
0.15	4.26 µg/mL	–	COc1ccc(NC(=O)[C@@H](CCCNC(=N)N)NC(=O)c2cc(NC(=O)[C@@H](CCCNC(=N)N)NC(=O)c3cc(NC(=O)[C@@H](CCCNC(=N)N)NC(=O)c4cc(NC(=O)[C@H](N)CCCNC(=N)N)ccc4OC)ccc3OC)ccc2OC)cc1C(=O)NCCN [Compound 51]
0.10	3.99 µg/mL	–	COc1ccc(NC(=O)[C@@H](CCCNC(=N)N)NC(=O)c2cc(NC(=O)[C@@H](CCCNC(=N)N)NC(=O)c3cc(NC(=O)[C@@H](CCCNC(=N)N)NC(=O)c4cc(NC(=O)[C@@H](C)NC(=O)CCCCN)ccc4OC)ccc3OC)ccc2OC)cc1C(=O)NCCCCCN [Compound 62]

From patent publication US20110178104A1, “Anti-Heparin Compounds” (POLYMEDIX INC., priority 2010, published 2011)
